Columns and labels:
[1] = molecular target: T1, LHRH rat pituitary receptor (Rattus norvegicus, UniProt P30969); experiment: LHRH rat pituitary receptor binding (pKI); details: negative logarithm of the equilibrium dissociation constants; for receptor binding affinity (pKI): Table 1; for Ki: Table 1, read-out: receptor binding affinity (pKI) (converted)
T1 construct: from tissue; host or cells: rat pituitary
T1 sequence (P30969 1-327): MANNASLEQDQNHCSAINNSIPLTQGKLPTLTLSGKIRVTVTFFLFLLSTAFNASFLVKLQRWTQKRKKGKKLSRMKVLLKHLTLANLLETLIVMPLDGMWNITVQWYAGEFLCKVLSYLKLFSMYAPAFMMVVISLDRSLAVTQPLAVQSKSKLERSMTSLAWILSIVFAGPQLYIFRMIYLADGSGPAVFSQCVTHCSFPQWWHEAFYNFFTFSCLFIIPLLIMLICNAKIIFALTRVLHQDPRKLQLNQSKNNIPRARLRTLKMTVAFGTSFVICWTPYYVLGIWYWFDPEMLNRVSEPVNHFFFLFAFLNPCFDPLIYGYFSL
Method: (§1) Representative compounds of the present invention were evaluated in in vitro tests for LHRH rat pituitary receptor binding (pKI) and for LH inhibition from rat pituitary cells for antagonist potency (pA2). The tests employed the methods detailed in F. Haviv, et al. J. Med. Chem., 32: 2340-2344 (1989). The receptor binding affinity (pKI) is the negative logarithm of the equilibrium dissociation constants.

[2] = molecular target: T2, rat pituitary cells (Rattus norvegicus, UniProt P30969); experiment: LH inhibition from rat pituitary cells, antagonist potency (pA2); assay type: cell-based; details: negative log of antagonist concentration shifting the leuprolide response curve to two-fold higher concentration, Table 2
T2 construct: endogenous in cells; host or cells: rat pituitary cells
T2 sequence (P30969 1-327): T1 sequence (P30969 1-327)
Method: as §1
The pA2 value is the negative logarithm of the concentration of antagonist which shifts the response curve produced by the agonist leuprolide to two-fold higher concentration. Leuprolide is the LHRH agonist having the structure pyro-Glu^1 -His^2 -Trp^3 -Ser^4 -Tyr^5 -D-Leu^6 -Leu^7 -Arg^8 -Pro^9 -NHEt and is disclosed and claimed in U.S. Pat. No. 4,005,063. Typically pA2 values of 7.0 or greater are indicative of good LHRH antagonist potency.

| SMILES | receptor binding affinity (pKI) [1] | pA2 [2] | Ki [1] [nM] | Kb [2] [nM] |
| --- | --- | --- | --- | --- |
| CCCN(C)[C@H]1C[C@@H](C)O[C@@H](O[C@@H]2[C@@H](C)[C@H](O[C@H]3C[C@@](C)(OC)[C@@H](O)[C@H](C)O3)[C@@H](C)C(=O)O[C@H](CC)[C@@]3(C)OC(=O)N(CCc4ccc(Cl)c(Cl)c4)[C@@H]3[C@@H](C)C(=O)[C@H](C)C[C@@]2(C)OC)[C@@H]1O [Example 3, 3'-N-Desmethyl-3'-N-n-propyl-11-deoxy-11-[carboxy-(3,4-dichlorophenethylamino)]-6-O-methyl-erythromycin A 11,12-(cyclic carbamate)] | 9.13 | 8.60 |  |  |
| CCCN(C)[C@H]1C[C@@H](C)O[C@@H](O[C@@H]2[C@@H](C)[C@H](O[C@H]3C[C@@](C)(OC)[C@@H](O)[C@H](C)O3)[C@@H](C)C(=O)O[C@H](CC)[C@@]3(C)OC(=O)N(CCc4ccc(Cl)c(F)c4)[C@@H]3[C@@H](C)C(=O)[C@H](C)C[C@@]2(C)OC)[C@@H]1O [Example 16, 3'-N-Desmethyl-3'-N-n-propyl-11-deoxy-11-[carboxy-(4-chloro-3-fluorophenethylamino)]-6-O-methyl-erythromycin A 11,12-(cyclic carbamate)] |  |  | 3.98 | 32.4 |
| CC[C@H]1OC(=O)[C@H](C)[C@@H](O[C@H]2C[C@@](C)(OC)[C@@H](O)[C@H](C)O2)[C@H](C)[C@@H](O[C@@H]2O[C@H](C)C[C@H](N(C)C3CCC3)[C@H]2O)[C@](C)(OC)C[C@@H](C)C(=O)[C@H](C)[C@H]2N(CCc3ccc(Cl)cc3)C(=O)O[C@]12C [Example 20] | 8.49 | 7.53 |  |  |
| CC[C@H]1OC(=O)[C@H](C)[C@@H](O[C@H]2C[C@@](C)(OC)[C@@H](O)[C@H](C)O2)[C@H](C)[C@@H](O[C@@H]2O[C@H](C)C[C@H](N(C)CC)[C@H]2O)[C@](C)(OC)C[C@@H](C)C(=O)[C@H](C)[C@H]2N(CCc3ccc(Cl)cc3)C(=O)O[C@]12C [Example 21, 3'-N-Desmethyl-3'-N-ethyl-11-deoxy-11-[carboxy-(4-chlorophenethylamino)]-6-O-methyl-erythromycin A 11,12-(cyclic carbamate)] |  |  | 6.17 | 55 |
| CC[C@H]1OC(=O)[C@H](C)[C@@H](O[C@H]2C[C@@](C)(OC)[C@@H](O)[C@H](C)O2)[C@H](C)[C@@H](O[C@@H]2O[C@H](C)C[C@H](N(C)C(C)C)[C@H]2O)[C@](C)(OC)C[C@@H](C)C(=O)[C@H](C)[C@H]2N(CCc3ccc(Cl)cc3)C(=O)O[C@]12C [Example 22, 3'-N-Desmethyl-3'-N-isopropyl-11-deoxy-11-[carboxy-(4-chlorophenethylamino)]-6-O-methyl-erythromycin A 11,12-(cyclic carbamate)] |  |  | 4.47 | 30.2 |
| CC[C@H]1OC(=O)[C@H](C)[C@@H](O[C@H]2C[C@@](C)(OC)[C@@H](O)[C@H](C)O2)[C@H](C)[C@@H](O[C@@H]2O[C@H](C)C[C@H](N(C)C3CCCC3)[C@H]2O)[C@](C)(OC)C[C@@H](C)C(=O)[C@H](C)[C@H]2N(CCc3ccc(Cl)cc3)C(=O)O[C@]12C [Example 23, 3'-N-Desmethyl-3'-N-cyclopentyl-11-deoxy-11-[carboxy-(4-chlorophenethylamino)]-6-O-methyl-erythromycin A 11,12-(cyclic carbamate)] |  |  | 6.76 | 50.1 |
| CCCN(C)[C@H]1C[C@@H](C)O[C@@H](O[C@@H]2[C@@H](C)[C@H](O[C@H]3C[C@@](C)(OC)[C@@H](O)[C@H](C)O3)[C@@H](C)C(=O)O[C@H](CC)[C@@]3(C)OC(=O)N(CCc4cccc(Cl)c4)[C@@H]3[C@@H](C)C(=O)[C@H](C)C[C@@]2(C)OC)[C@@H]1O [Example 25, 3'-N-Desmethyl-3'-N-n-propyl-11-deoxy-11-[carboxy-(3-chlorophenethylamino)]-6-O-methyl-erythromycin A 11,12-(cyclic carbamate)] |  |  | 4.17 | 37.2 |
| CC[C@H]1OC(=O)[C@H](C)[C@@H](O[C@H]2C[C@@](C)(OC)[C@@H](O)[C@H](C)O2)[C@H](C)[C@@H](O[C@@H]2O[C@H](C)C[C@H](N(C)C3CCCC3)[C@H]2O)[C@](C)(OC)C[C@@H](C)C(=O)[C@H](C)[C@H]2N(CCc3ccc(F)c(Cl)c3)C(=O)O[C@]12C [Example 26, 3'-N-Desmethyl-3'-N-cyclopentyl-11-deoxy-11-[carboxy-(3-chloro-4-fluorophenethylamino)]-6-O-methyl-erythromycin A 11,12-(cyclic carbamate)] |  |  | 1.48 | 2.19 |
| CC[C@H]1OC(=O)[C@H](C)[C@@H](O[C@H]2C[C@@](C)(OC)[C@@H](O)[C@H](C)O2)[C@H](C)[C@@H](O[C@@H]2O[C@H](C)C[C@H](N(C)C3CCC3)[C@H]2O)[C@](C)(OC)C[C@@H](C)C(=O)[C@H](C)[C@H]2N(CCc3ccc(F)c(Cl)c3)C(=O)O[C@]12C [Example 27, 3'-N-Desmethyl-3'-N-cyclobutyl-11-deoxy-11-[carboxy-(3-chloro-4-fluorophenethylamino)]-6-O-methyl-erythromycin A 11,12-(cyclic carbamate)] |  |  | 1.55 | 3.8 |
| CC[C@H]1OC(=O)[C@H](C)[C@@H](O[C@H]2C[C@@](C)(OC)[C@@H](O)[C@H](C)O2)[C@H](C)[C@@H](O[C@@H]2O[C@H](C)C[C@H](N(C)C(C)C)[C@H]2O)[C@](C)(OC)C[C@@H](C)C(=O)[C@H](C)[C@H]2N(CCc3ccc(F)c(Cl)c3)C(=O)O[C@]12C [Example 28, 3'-N-Desmethyl-3'-N-isopropyl-11-deoxy-11-[carboxy-(3-chloro-4-fluorophenethylamino)]-6-O-methyl-erythromycin A 11,12-(cyclic carbamate)] |  |  | 0.324 | 3.02 |
| CC[C@H]1OC(=O)[C@H](C)[C@@H](O[C@H]2C[C@@](C)(OC)[C@@H](O)[C@H](C)O2)[C@H](C)[C@@H](O[C@@H]2O[C@H](C)C[C@H](N(C)CC3CC3)[C@H]2O)[C@](C)(OC)C[C@@H](C)C(=O)[C@H](C)[C@H]2N(CCc3ccc(F)c(Cl)c3)C(=O)O[C@]12C [Example 29, 3'-N-Desmethyl-3'-N-cyclopropylmethyl-11-deoxy-11-(3-chloro-4-fluorophenethylamino)-6-O-methyl-erythromycin A 11,12-(cyclic carbamate)] |  |  | 0.537 | 1.07 |
| CC[C@H]1OC(=O)[C@H](C)[C@@H](O[C@H]2C[C@@](C)(OC)[C@@H](O)[C@H](C)O2)[C@H](C)[C@@H](O[C@@H]2O[C@H](C)C[C@H](N(C)C3CCC3)[C@H]2O)[C@](C)(OC)C[C@@H](C)C(=O)[C@H](C)[C@H]2N(CCc3ccc(F)c(F)c3)C(=O)O[C@]12C [Example 30, 3'-N-Desmethyl-3'-N-cyclobutyl-11-deoxy-11-[carboxy-(3,4-difluorophenethylamino)]-6-O-methyl-erythromycin A 11,12-(cyclic carbamate)] |  |  | 0.513 | 5.25 |
| CC[C@H]1OC(=O)[C@H](C)[C@@H](O[C@H]2C[C@@](C)(OC)[C@@H](O)[C@H](C)O2)[C@H](C)[C@@H](O[C@@H]2O[C@H](C)C[C@H](N(C)C3CCCC3)[C@H]2O)[C@](C)(OC)C[C@@H](C)C(=O)[C@H](C)[C@H]2N(CCc3ccc(F)c(F)c3)C(=O)O[C@]12C [Example 31, 3'-N-Desmethyl-3'-N-cyclopentyl-11-deoxy-11-[carboxy-(3,4-difluorophenethylamino)]-6-O-methyl-erythromycin A 11,12-(cyclic carbamate)] |  |  | 0.269 | 5.75 |

Reference: patent US5955440A, “Macrolide LHRH antagonists” (Abbott Laboratories, priority 1998, dated 1999)
